# Earlier results in patent publication US20160228385A1, “PURIFIED CBD AND CBDA, AND METHODS, COMPOSITIONS AND PRODUCTS EMPLOYING CBD OR CBDA” (COLORADO CAN LLC, priority 2015, published 2016).
# Test system: human subjects seeking to quit smoking
# Settings: CBD administered via an inhaler, compared to no reduction with placebo inhaler
smiles,measurement,value
"C=C(C)[C@@H]1CCC(C)=C[C@H]1c1c(O)cc(CCCCC)cc1O [CBD, Cannabidiol]",reduction of cigarette use,40%
